Measured values taken from US20250092069A1, “SILYL-LIPID CA[…] ENHANCED BIOLOGICAL ACTIVITY” (The Regents of the University of California, priority 2022, published 2025).

How the values were obtained:
[1] = biological target: T1, CB1 (Homo sapiens, UniProt P21554); test: CB1 β-arrestin recruitment agonist assay (Eurofin's); format: cell-based; settings: agonist mode; for EC50: read-out: RC50 (EC50), agonist, CB1
[2] = biological target: T1, CB1; test: CB1 β-arrestin recruitment antagonist assay (Eurofin's); format: cell-based; settings: antagonist mode, 0.016 μM CP55940; for IC50: β-arrestin recruitment, read-out: RC50 (IC50), antagonist, CB1
Excerpt: (§1) For antagonist assays, data was normalized to the maximal and minimal response observed in the presence of EC80 ligand and vehicle.

[3] = biological target: T2, CB2 (Homo sapiens, UniProt P34972); test: CB2 β-arrestin recruitment agonist assay (Eurofin's); format: cell-based; settings: for Emax / EC50: β-arrestin recruitment, agonist mode; for EC50: read-out: RC50 (EC50), agonist, CB2
[4] = biological target: T2, CB2; test: CB2 β-arrestin recruitment antagonist assay (Eurofin's); format: cell-based; settings: antagonist mode, 0.0053 μM CP55940; for IC50: β-arrestin recruitment, read-out: RC50 (IC50), antagonist, CB2
Excerpt: as §1

[5] = tested on: TNF-α release; settings: at 30 min, LPS-induced model; cited from earlier work
[6] = cited from earlier work
[7] = normalized to response with EC80 ligand and vehicle

T2 sequence (P34972 whole entry): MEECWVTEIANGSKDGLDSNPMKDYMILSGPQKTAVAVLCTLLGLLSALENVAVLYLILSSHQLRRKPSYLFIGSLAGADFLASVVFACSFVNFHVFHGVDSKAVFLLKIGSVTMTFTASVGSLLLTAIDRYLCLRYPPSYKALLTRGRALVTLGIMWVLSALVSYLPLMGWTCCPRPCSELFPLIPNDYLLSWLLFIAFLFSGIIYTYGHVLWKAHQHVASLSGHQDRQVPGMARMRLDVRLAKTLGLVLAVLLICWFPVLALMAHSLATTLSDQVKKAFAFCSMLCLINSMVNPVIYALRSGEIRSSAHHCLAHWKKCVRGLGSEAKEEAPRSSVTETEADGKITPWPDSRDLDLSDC
T1 sequence (P21554 whole entry): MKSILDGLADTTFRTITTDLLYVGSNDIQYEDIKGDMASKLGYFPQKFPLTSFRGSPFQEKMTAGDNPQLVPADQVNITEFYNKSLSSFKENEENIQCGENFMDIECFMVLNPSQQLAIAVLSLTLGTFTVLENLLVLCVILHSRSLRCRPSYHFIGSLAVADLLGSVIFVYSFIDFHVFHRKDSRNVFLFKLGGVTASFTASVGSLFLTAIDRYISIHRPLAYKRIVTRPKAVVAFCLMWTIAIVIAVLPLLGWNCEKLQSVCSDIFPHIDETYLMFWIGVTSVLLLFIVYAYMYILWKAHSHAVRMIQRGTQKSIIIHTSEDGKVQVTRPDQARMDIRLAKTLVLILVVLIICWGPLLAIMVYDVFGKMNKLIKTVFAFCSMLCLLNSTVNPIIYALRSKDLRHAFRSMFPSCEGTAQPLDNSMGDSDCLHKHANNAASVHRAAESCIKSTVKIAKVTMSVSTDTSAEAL

Compound `C=C(C)[C@H]1CCC(C)=C[C@@H]1c1c(O)cc([Si](C)(C)CCCCCC)cc1O` [AAC-01] has an Emax [1] of 64.8%, an EC50 [1] of 33.3 nM and an Emax [2, 7] of 86.4%. It also gave an IC50 [2] of 2070 nM, an Emax [3] of 70% and an EC50 [3] of 4.14 nM. The Emax [4, 7] was 69.7% and the IC50 [4] was 1870 nM.
In the case of `C=C(C)[C@H]1CCC(C)=C[C@@H]1c1c(O)cc(CC[Si](C)(C)CCCC)cc1O` [AAC-02], the EC50 [1] is reported as greater than 10000 nM, the Emax [2, 7] is reported as 71.1% and the IC50 [2] is reported as 2230 nM. The “selectivity for CB2 vs CB1” value ([3]; agonist EC50 CB1 vs CB2) was 500 ×, the Emax [3] was 50.3% and the EC50 [3] was 18 nM. For the same compound, the IC50 [4] was greater than 10000 nM.
For `Cc1c(C(=O)NN2CCOCC2)nn(-c2ccc(Cl)cc2Cl)c1-c1ccc(I)cc1` [AM281, reference compound], the “Emax, antagonist, CB1” value [2, 7] was 106.6% and the IC50 [2] was 10.5 nM.
For `Cc1ccc(-n2nc(C(C)(C)C)cc2NC(=O)Nc2ccc(OCCN3CCOCC3)c3ccccc23)cc1` [BIRB-796], the TNF-α suppression [5] is listed as 41%.
Compound `CCCCCCC(C)(C)c1ccc([C@@H]2C[C@H](O)CC[C@H]2CCCO)c(O)c1` [CP55,940, reference compound] has an Emax [3] of 101%.
For `O=C(O)[C@@H]1CCCN1C(=O)OCC1c2ccccc2-c2ccccc21` [Fmoc-Pro], the “Log P” value [6] is given as 0.094.
In the case of `C[Si]1(C)CC(C(=O)O)N(C(=O)OCC2c3ccccc3-c3ccccc32)C1` (stereo not drawn) [Fmoc-Sip], the “Log P” value [6] is given as 1.3.
For `CC(C)(C)c1ccccc1` [t-butylbenzene], the “Log P” value [6] is listed as 4.0.
For `C[Si](C)(C)c1ccccc1` [trimethylsilyl-benzene], the “Log P” value [6] is listed as 4.7.
With SR 144528 [reference compound] the “Emax, antagonist, CB2” value [4, 7] was 101.6%.
